Converted amounts (≈) assume the structure as drawn.
Legend:
Format in all cases: functional
[1] = test system: Mycobacterium tuberculosis; assay: Antimycobacterial activity against isoniazid resistant Mycobacterium tuberculosis measured after 7 days by resazurin microtiter assay; details: 168 h
[2] = test system: Mycobacterium tuberculosis; assay: Antimycobacterial activity against isoniazid resistant Mycobacterium tuberculosis H37Rv ATCC 27294 measured after 7 days by resazurin microtiter assay; details: H37Rv ATCC 27294, 168 h
[3] = test system: Mycobacterium tuberculosis; assay: Antimycobacterial activity against isoniazid resistant Mycobacterium tuberculosis ATCC 35822 after 7 days by resazurin microtiter assay; details: ATCC 35822, 168 h

SMILES | MIC [1] | MIC [2] | MIC [3]
O=C1C2=C(OC(Cn3cc(-c4ccccc4)nn3)C2)c2ccccc2/C1=N/NC(=O)c1ccncc1 (stereo not drawn) | 50 µg/mL (≈ 105 µM) | 12.5 µg/mL (≈ 26.2 µM) | 50 µg/mL (≈ 105 µM)
CC1(C)OC2=C(C(=O)/C(=N\NC(=O)c3ccncc3)c3ccccc32)[C@H](n2cc(-c3ccccc3)nn2)[C@H]1Br | > 200 µg/mL | 200 µg/mL (≈ 343 µM) | 200 µg/mL (≈ 343 µM)
NNC(=O)c1ccncc1 [ISONIAZID] | 0.25 µg/mL (≈ 1.82 µM) | 0.03 µg/mL (≈ 0.219 µM) | 2 µg/mL (≈ 14.6 µM)
CC1(C)OC2=C(C(=O)/C(=N\NC(=O)c3ccncc3)c3ccccc32)C1O (stereo not drawn) | 100 µg/mL (≈ 275 µM) | 6.25 µg/mL (≈ 17.2 µM) | 200 µg/mL (≈ 550 µM)
CC1(C)CC2=C(O1)/C(=N\NC(=O)c1ccncc1)c1ccccc1C2=O | 200 µg/mL (≈ 576 µM) | 25 µg/mL (≈ 72 µM) | 100 µg/mL (≈ 288 µM)
CC1(C)OC2=C(CC1Br)C(=O)/C(=N\NC(=O)c1ccncc1)c1ccccc12 (stereo not drawn) | 12.5 µg/mL (≈ 28.4 µM) | 12.5 µg/mL (≈ 28.4 µM) | 12.5 µg/mL (≈ 28.4 µM)
CC1(C)CC2=C(O1)C(=O)c1ccccc1C2=O | 25 µg/mL (≈ 110 µM) | 12.5 µg/mL (≈ 54.8 µM) | 25 µg/mL (≈ 110 µM)
CC1(C)CCC2=C(O1)/C(=N\NC(=O)c1ccncc1)c1ccccc1C2=O | > 200 µg/mL | > 200 µg/mL | > 200 µg/mL
CC1(C)OC2=C(C(=O)C(=O)c3ccccc32)[C@H](n2cc(-c3ccccc3)nn2)[C@H]1Br (racemic) | 12.5 µg/mL (≈ 26.9 µM) | 1.56 µg/mL (≈ 3.36 µM) | 6.25 µg/mL (≈ 13.5 µM)
CC1(C)OC2=C(C(=O)C(=O)c3ccccc32)C1n1cc(-c2ccccc2)nn1 (stereo not drawn) | 25 µg/mL (≈ 67.3 µM) | 6.25 µg/mL (≈ 16.8 µM) | 25 µg/mL (≈ 67.3 µM)
CC1(C)CCC2=C(O1)C(=O)c1ccccc1C2=O [ALPHA-LAPACHONE] |  | 103 µg/mL (≈ 426 µM) | 
CC1(C)OC2=C(C(=O)/C(=N\NC(=O)c3ccncc3)c3ccccc32)C1Nc1ccccc1 (stereo not drawn) | 25 µg/mL (≈ 57 µM) | 25 µg/mL (≈ 57 µM) | 100 µg/mL (≈ 228 µM)
O=C1C(=O)c2ccccc2C2=C1CC(Cn1cc(-c3ccccc3)nn1)O2 (stereo not drawn) | 25 µg/mL (≈ 70 µM) | 12.5 µg/mL (≈ 35 µM) | 25 µg/mL (≈ 70 µM)
CC1(C)CC2=C(O1)c1ccccc1C(=O)C2=O [NOR-BETA-LAPACHONE] | 6.25 µg/mL (≈ 27.4 µM) | 3.12 µg/mL (≈ 13.7 µM) | 12.5 µg/mL (≈ 54.8 µM)
CC1(C)CCC2=C(O1)c1ccccc1/C(=N/NC(=O)c1ccncc1)C2=O | 6.25 µg/mL (≈ 17.3 µM) | 0.78 µg/mL (≈ 2.16 µM) | 50 µg/mL (≈ 138 µM)
CC1(C)OC2=C(C(=O)C(=O)c3ccccc32)C1Nc1ccccc1 (stereo not drawn) | 6.25 µg/mL (≈ 19.6 µM) | 3.12 µg/mL (≈ 9.77 µM) | 3.12 µg/mL (≈ 9.77 µM)
CC1(C)OC2=C(CC1I)C(=O)C(=O)c1ccccc12 (stereo not drawn) | 6.25 µg/mL (≈ 17 µM) | 3.12 µg/mL (≈ 8.47 µM) | 3.12 µg/mL (≈ 8.47 µM)
CC1(C)CC2=C(O1)c1ccccc1/C(=N/NC(=O)c1ccncc1)C2=O | 6.25 µg/mL (≈ 18 µM) | 0.78 µg/mL (≈ 2.25 µM) | 50 µg/mL (≈ 144 µM)
CC1(C)OC2=C(CC1I)C(=O)/C(=N\NC(=O)c1ccncc1)c1ccccc12 (stereo not drawn) | 100 µg/mL (≈ 205 µM) | 100 µg/mL (≈ 205 µM) | 100 µg/mL (≈ 205 µM)
CC1CC2=C(O1)c1ccccc1/C(=N/NC(=O)c1ccncc1)C2=O (stereo not drawn) | 25 µg/mL (≈ 75 µM) | 12.5 µg/mL (≈ 37.5 µM) | 12.5 µg/mL (≈ 37.5 µM)
CC1(C)OC2=C(C(=O)/C(=N\NC(=O)c3ccncc3)c3ccccc32)C1n1cc(-c2ccccc2)nn1 (stereo not drawn) | 12.5 µg/mL (≈ 25.5 µM) | 12.5 µg/mL (≈ 25.5 µM) | 12.5 µg/mL (≈ 25.5 µM)
CC1(C)OC2=C(C(=O)C(=O)c3ccccc32)C1O (stereo not drawn) | 25 µg/mL (≈ 102 µM) | 12.5 µg/mL (≈ 51.2 µM) | 25 µg/mL (≈ 102 µM)
CC1(C)CCC2=C(O1)c1ccccc1C(=O)C2=O [LAPACHONE] | 6.25 µg/mL (≈ 25.8 µM) | 1.56 to 6.25 µg/mL (≈ 6.44 to 25.8 µM) | 3.12 µg/mL (≈ 12.9 µM)
CO[C@H]1/C=C/O[C@@]2(C)Oc3c(C)c(O)c4c(O)c(c(/C=N/N5CCN(C)CC5)c(O)c4c3C2=O)NC(=O)/C(C)=C\C=C\[C@H](C)[C@H](O)[C@@H](C)[C@@H](O)[C@@H](C)[C@H](OC(C)=O)[C@@H]1C [RIFAMPIN] | > 8 µg/mL | ≤ 0.03 µg/mL | ≤ 0.03 µg/mL
CC1(C)OC2=C(CC1Br)C(=O)C(=O)c1ccccc12 (stereo not drawn) | 3.12 µg/mL (≈ 9.71 µM) | 6.25 µg/mL (≈ 19.5 µM) | 6.25 µg/mL (≈ 19.5 µM)

Reference: ChEMBL document CHEMBL4393738, “Design of hybrid molecules as antimycobacterial compounds: Synthesis of isoniazid-naphthoquinone derivatives and their activity against susceptible and resistant strains of Mycobacterium tuberculosis” (Bioorg Med Chem, 2019)
